Details of data set [1]: species or system mice. To be noted: C3.Cg/TifBomTac-hr (hairless), mouse, in vivo. As for the experimental part:
(§1) The purpose of this study was to investigate the effect of adding sorbitol to an enema formulation containing 20 mM ALA hexylester in an attempt to reduce the systemic uptake of the photosensitizer. It was discovered in pilot experiments that sorbitol at concentrations above 300 mM gave diarrhea. Therefore, the effect of 300 mM sorbitol in 0.9% NaCl (600 mOsmol/l) was investigated by comparing the skin fluorescence in two mice that were given 20 mM ALA hexylester (in 0.9% NaCl) with the skin fluorescence in two mice that had received 20 mM ALA hexylester and 300 mM sorbitol. The osmolarities of these solutions are outlined below. • 1. 20 mM ALA hexylester in 0.9% NaCl: (40+300) mOsmol/l=340 mOsmol/l • 2. 20 mM ALA hexylester and 300 mM sorbitol in 0.9% NaCl: (40+300+300) mOsmol/l=640 mOsmol/l (hypertonic preparation)

Data set [2] is described as follows: Systemic uptake from the colon assessed as PpIX skin fluorescence after colonic instillation. In kind it is in vivo, hairless mice (C3.Cg/TifBomTac-hr). As for the experimental part: Experiments were performed in hairless mice weighing 20 g (C3.Cg/TifBomTac-hr). […] The animals were fasted for 24 hours but with free access to water before the experiment. Prior to administration of the test preparation, the mice were anaesthetised with Hypnorm/Dormicum. This was also repeated every second hour.
When ALA hexylester is administered sytemically, it induces PpIX formation in the entire body. The systemic uptake of ALA hexylester after colonic administration was therefore assessed as skin fluorescence. To assess the PpIX skin fluorescence, the mice were photographed using a fluorescence camera (Medeikonos PDD/PDT, Medeikonos AB, Gothenburg, Sweden) at excitation wavelengths of 365 and 405 nm and 2 sec illumination time. Each photo was calibrated to a fluorescence standard (Uranyl Standard, J&M, Analytische Mess and Regeltecknik, GmbH, Hamburg, Germany) and adjusted for background fluorescence. The mean amount of PpIX fluorescence in each image was calculated by means of image analyzer-software (MatLab 7.2.0.232, Math-Works, Natick, Mass., USA).
All dilutions were performed in 0.9% NaCl (150 mM=300 mOsmol/l). For the colon instillation, a 1000 μl micropipette with a plastic tip was used. […] In all experiments, instillation lasted until the experiment was finished (approx. 5 hours).
Increasing doses (8 to 40 mM ALA hexylester) were given by anal administration to mice and the resulting skin fluorescence measured as described. […] The resulting systemic fraction was proportional to the concentration of ALA hexylester in the enema.
The ALA hexylester was dissolved as the corresponding hydrochloride salt. 20 mM ALA hexylester constitutes an osmolarity of approx. 40 mOsmol/l.
as §1

The nature of data set [3]: Absorption from the colon after enema (pharmacokinetic studies with 14C-labelled agents, HAL enema studies). The data set is classed as in vivo. As to conditions: enema preparations. An excerpt: Such high systemic uptake of photosensitizer may constitute a safety issue for the patient due to the high dosage of agent circulating within the bloodstream.
The nature of data set [4]: Osmolarity of preparations. The data set is classed as physicochemical. As to conditions: calculated from concentrations. An excerpt:
An osmometer may be used to determine the osmolarity of a solution. There are several different techniques employed in osmometry; vapour pressure depression osmometers determine the concentration of osmotically active particles that reduce the vapour pressure of a solution; membrane osmometers measure the osmotic pressure of a solution separated from pure solvent by a semi-permeable membrane; and freezing point depression osmometers are used to determine the osmotic strength of a solution (since osmotically active compounds depress the freezing point of a solution). Osmolarity may be measured using a vapour pressure osmometer such as that supplied by ELITech Group (Vapro 5600 vapour pressure osmometer). Where reference is made herein to specific values for osmolarity, these values may be determined using such apparatus operated under standard temperature and pressure conditions.
The osmolarity of small molecules can normally be calculated from their concentration in solution. For example, in the case of simple salts such as NaCl: 0.9% NaCl=150 mM. NaCl is fully dissociated in water and both Na^+ and Cl^− contribute to the osmolarity (i.e. each mole of NaCl becomes two osmoles in solution, one mole of Na^+ and one mole of Cl^−). The osmolarity is therefore 150 mM×2=300 mOsmol/l. […]

Data set [5] deals with pre-malignant conditions in the colon. To be noted: enema, 200 mg in 500 ml or 1000 ml phosphate buffered saline; Mayinger et al. 2008; cited from earlier work.

A value given as a limit tells only on which side of the number the result lay.

Turning to `OC[C@@H](O)[C@@H](O)[C@H](O)[C@@H](O)CO` [sorbitol], in data set [1], the “sorbitol concentration that gave diarrhea” value was “above 300 mM”.

Turning to `CCCCCCOC(=O)CCC(=O)CN` [ALA hexylester, 5-aminolevulinic acid hexyl ester], the skin fluorescence entry in data set [2] (8 mM ALA hexylester (concentration used clinically), colonic instillation 0.6 ml in 0.9% NaCl, FIG. 1) was “no skin fluorescence”; in data set [2] (20 mM ALA hexyl ester, colonic administration), “reasonable levels of skin sensitivity”. In addition, the “relationship between concentration in the enema and resulting skin fluorescence” value in data set [2] (8 to 40 mM, anal administration, FIG. 1) was “clear dose-response relationship”. Moreover, the “concentration of ALA hexylester appearing saturating for skin fluorescence” value in data set [2] (colonic instillation 0.6 ml in 0.9% NaCl, FIG. 1) is at least 30000 µM. For the same compound, the “absorption of the active photosensitizing agent in the colon” value in data set [3] is “absorption of a significant amount”. Also, in data set [4], the osmolarity result is “approx. 40 mOsmol/l”. In addition, the “more polyps detected by PDD than with white light endoscopic imaging” value in data set [5] is reported as 28%.
